Source: patent US20250120932A1, “PHARMACEUTICAL COMPOSITION” (NEUROPRO THERAPEUTICS, INC., priority 2021, published 2025)

Experiment: Pharmacokinetic study in cynomolgus monkeys after oral (nasogastric) gavage, sublingual and intravenous administration
Assay type: in vivo
Settings: cynomolgus monkey, plasma, Plasma Bumetanide Dibenzylamide concentration, monkey; for concentration at 0.5 h: 0.50 h
Protocol: A pharmacokinetic study was done in cynomolgus monkeys following single oral (nasogastric) gavage, sublingual, and intravenous administration. […] Calibration curves, blanks, and analytical QCs were prepared in monkey plasma (K2EDTA). The extracts were evaporated to dryness, reconstituted, and then analyzed by LC-MS/MS. The calibration range was 0.250-250 ng/mL for both analytes.
If the criteria for either the calibration curve or the analytical QCs were not met, the analytical run was rejected. […] No deviations were found during the bioanalytical phase of the study conducted by Origin. Calibration curves were derived from the individual analyte to internal standard peak area ratios using the least squared regression of the ratio versus the nominal concentration of the calibration standard, prepared in duplicate. The regression was then used to back-calculate the concentration of each calibration standard, QC sample and study sample. […] Analyst® Software Version 1.6.3 (Applied Biosystems-MDS Sciex), operated with Windows® (Microsoft), was used for instrument control, data acquisition, and peak integrations. Peak area ratios, standard curve regressions, and sample concentration/accuracy values were calculated with Analyst® Software Version 1.6.3. Other results (e.g., mean statistics) were calculated with Excel® (Microsoft).
There was no apparent sex difference for the second formulation. […] A fourth formulation comprising the composition B listed in Table 54 was also administered in monheys.

[1] = both sexes, oral, 30 mg/kg, Mean, NG 30 mg/kg, First Formulation (Form 1), N=4
[2] = both sexes, oral, 30 mg/kg, Mean, NG 30 mg/kg, Second Formulation (Form 3), N=4
[3] = both sexes, oral, 30 mg/kg, Median, NG 30 mg/kg, First Formulation (Form 1), N=4
[4] = both sexes, oral, 30 mg/kg, Median, NG 30 mg/kg, Second Formulation (Form 3), N=4
[5] = intravenous, 2 mg/kg, Mean, dose column 2 mg/kg (title 30 mg/kg), Third Formulation (Form 4), N=4
[6] = intravenous, 2 mg/kg, dose column 2 mg/kg (title 30 mg/kg), Third Formulation (Form 4), individual animals
[7] = other: sublingual, 5 mg/kg, Mean, SL, dose column 5 mg/kg (title 30 mg/kg), Fourth Formulation (Form 2), N=4
[8] = other: sublingual, 5 mg/kg, Median, SL, dose column 5 mg/kg (title 30 mg/kg), Fourth Formulation (Form 2), N=4

## CCCCNc1cc(C(=O)N(Cc2ccccc2)Cc2ccccc2)cc(S(N)(=O)=O)c1Oc1ccccc1 [Bumetanide Dibenzylamide, N, N-dibenzyl 3-aminosulfonyl-5-butylamino-4-phenoxybenzamide]
[1]
  concentration at 0 h: 0 ng/mL
  concentration at 0.25 h: 4.31 ng/mL
  concentration at 0.5 h: 5.9 ng/mL
Both sexes, oral, 30 mg/kg, Mean, NG 30 mg/kg, First Formulation (Form 1), 1.00 h, N=4
  concentration at 1 h: 13.2 ng/mL
Both sexes, oral, 30 mg/kg, Mean, NG 30 mg/kg, First Formulation (Form 1), 2.00 h, N=4
  concentration at 2 h: 62.6 ng/mL
Both sexes, oral, 30 mg/kg, Mean, NG 30 mg/kg, First Formulation (Form 1), 4.00 h, N=4
  concentration at 4 h: 66.8 ng/mL
Both sexes, oral, 30 mg/kg, Mean, NG 30 mg/kg, First Formulation (Form 1), 8.00 h, N=4
  concentration at 8 h: 44.9 ng/mL
Both sexes, oral, 30 mg/kg, Mean, NG 30 mg/kg, First Formulation (Form 1), 24.00 h, N=4
  concentration at 24 h: 8.59 ng/mL
Both sexes, oral, 30 mg/kg, Mean, NG 30 mg/kg, First Formulation (Form 1), 32.00 h, N=4
  concentration at 32 h: 4.51 ng/mL
[2]
  concentration at 0 h: 0 ng/mL
  concentration at 0.25 h: 0.283 ng/mL
  concentration at 0.5 h: 2.85 ng/mL
Both sexes, oral, 30 mg/kg, Mean, NG 30 mg/kg, Second Formulation (Form 3), 1.00 h, N=4
  concentration at 1 h: 11.5 ng/mL
Both sexes, oral, 30 mg/kg, Mean, NG 30 mg/kg, Second Formulation (Form 3), 2.00 h, N=4
  concentration at 2 h: 54.1 ng/mL
Both sexes, oral, 30 mg/kg, Mean, NG 30 mg/kg, Second Formulation (Form 3), 4.00 h, N=4
  concentration at 4 h: 231 ng/mL
Both sexes, oral, 30 mg/kg, Mean, NG 30 mg/kg, Second Formulation (Form 3), 8.00 h, N=4
  concentration at 8 h: 590 ng/mL
Both sexes, oral, 30 mg/kg, Mean, NG 30 mg/kg, Second Formulation (Form 3), 24.00 h, N=4
  concentration at 24 h: 13.6 ng/mL
Both sexes, oral, 30 mg/kg, Mean, NG 30 mg/kg, Second Formulation (Form 3), 32.00 h, N=4
  concentration at 32 h: 2.94 ng/mL
[3]
  concentration at 0 h: 0 ng/mL
  concentration at 0.25 h: 0.962 ng/mL
  concentration at 0.5 h: 2.82 ng/mL
Both sexes, oral, 30 mg/kg, Median, NG 30 mg/kg, First Formulation (Form 1), 1.00 h, N=4
  concentration at 1 h: 10.1 ng/mL
Both sexes, oral, 30 mg/kg, Median, NG 30 mg/kg, First Formulation (Form 1), 2.00 h, N=4
  concentration at 2 h: 42.6 ng/mL
Both sexes, oral, 30 mg/kg, Median, NG 30 mg/kg, First Formulation (Form 1), 4.00 h, N=4
  concentration at 4 h: 37.6 ng/mL
Both sexes, oral, 30 mg/kg, Median, NG 30 mg/kg, First Formulation (Form 1), 8.00 h, N=4
  concentration at 8 h: 31.3 ng/mL
Both sexes, oral, 30 mg/kg, Median, NG 30 mg/kg, First Formulation (Form 1), 24.00 h, N=4
  concentration at 24 h: 5.38 ng/mL
Both sexes, oral, 30 mg/kg, Median, NG 30 mg/kg, First Formulation (Form 1), 32.00 h, N=4
  concentration at 32 h: 3.75 ng/mL
[4]
  concentration at 0 h: 0 ng/mL
  concentration at 0.25 h: 0.256 ng/mL
  concentration at 0.5 h: 2.44 ng/mL
Both sexes, oral, 30 mg/kg, Median, NG 30 mg/kg, Second Formulation (Form 3), 1.00 h, N=4
  concentration at 1 h: 9.43 ng/mL
Both sexes, oral, 30 mg/kg, Median, NG 30 mg/kg, Second Formulation (Form 3), 2.00 h, N=4
  concentration at 2 h: 58.6 ng/mL
Both sexes, oral, 30 mg/kg, Median, NG 30 mg/kg, Second Formulation (Form 3), 4.00 h, N=4
  concentration at 4 h: 194 ng/mL
Both sexes, oral, 30 mg/kg, Median, NG 30 mg/kg, Second Formulation (Form 3), 8.00 h, N=4
  concentration at 8 h: 566 ng/mL
Both sexes, oral, 30 mg/kg, Median, NG 30 mg/kg, Second Formulation (Form 3), 24.00 h, N=4
  concentration at 24 h: 10 ng/mL
Both sexes, oral, 30 mg/kg, Median, NG 30 mg/kg, Second Formulation (Form 3), 32.00 h, N=4
  concentration at 32 h: 1.86 ng/mL
Both sexes, oral, 30 mg/kg, NG 30 mg/kg, First Formulation (Form 1), individual animals
  concentration at 0 h: 0 ng/mL
Both sexes, oral, 30 mg/kg, NG 30 mg/kg, Second Formulation (Form 3), individual animals
  concentration at 0 h: 0 ng/mL
Both sexes, oral, 30 mg/kg, NG 30 mg/kg, Second Formulation (Form 3), 8.00 h, individual animals
  concentration at 8 h: 442 ng/mL
[5]
  concentration at 0.08 h: 1440 ng/mL
  concentration at 0.5 h: 664 ng/mL
intravenous, 2 mg/kg, Mean, dose column 2 mg/kg (title 30 mg/kg), Third Formulation (Form 4), 1.00 h, N=4
  concentration at 1 h: 483 ng/mL
intravenous, 2 mg/kg, Mean, dose column 2 mg/kg (title 30 mg/kg), Third Formulation (Form 4), 2.00 h, N=4
  concentration at 2 h: 285 ng/mL
intravenous, 2 mg/kg, Mean, dose column 2 mg/kg (title 30 mg/kg), Third Formulation (Form 4), 4.00 h, N=4
  concentration at 4 h: 114 ng/mL
intravenous, 2 mg/kg, Mean, dose column 2 mg/kg (title 30 mg/kg), Third Formulation (Form 4), 8.00 h, N=4
  concentration at 8 h: 30.7 ng/mL
intravenous, 2 mg/kg, Mean, dose column 2 mg/kg (title 30 mg/kg), Third Formulation (Form 4), 24.00 h, N=4
  concentration at 24 h: 3.57 ng/mL
intravenous, 2 mg/kg, Mean, dose column 2 mg/kg (title 30 mg/kg), Third Formulation (Form 4), 32.00 h, N=4
  concentration at 32 h: 1.48 ng/mL
[6]
  concentration at 0.08 h: 1860 ng/mL
  concentration at 0.5 h: 717 ng/mL
intravenous, 2 mg/kg, dose column 2 mg/kg (title 30 mg/kg), Third Formulation (Form 4), 1.00 h, individual animals
  concentration at 1 h: 538 ng/mL
intravenous, 2 mg/kg, dose column 2 mg/kg (title 30 mg/kg), Third Formulation (Form 4), 2.00 h, individual animals
  concentration at 2 h: 332 ng/mL
intravenous, 2 mg/kg, dose column 2 mg/kg (title 30 mg/kg), Third Formulation (Form 4), 4.00 h, individual animals
  concentration at 4 h: 149 ng/mL
[7]
  concentration at 0 h: 0 ng/mL
  concentration at 0.25 h: 0 ng/mL
  concentration at 0.5 h: 0 ng/mL
other: sublingual, 5 mg/kg, Mean, SL, dose column 5 mg/kg (title 30 mg/kg), Fourth Formulation (Form 2), 1.0 h, N=4
  concentration at 1 h: 0 ng/mL
other: sublingual, 5 mg/kg, Mean, SL, dose column 5 mg/kg (title 30 mg/kg), Fourth Formulation (Form 2), 2.0 h, N=4
  concentration at 2 h: 0.155 ng/mL
other: sublingual, 5 mg/kg, Mean, SL, dose column 5 mg/kg (title 30 mg/kg), Fourth Formulation (Form 2), 4.0 h, N=4
  concentration at 4 h: 0.114 ng/mL
other: sublingual, 5 mg/kg, Mean, SL, dose column 5 mg/kg (title 30 mg/kg), Fourth Formulation (Form 2), 8.0 h, N=4
  concentration at 8 h: 0.41 ng/mL
other: sublingual, 5 mg/kg, Mean, SL, dose column 5 mg/kg (title 30 mg/kg), Fourth Formulation (Form 2), 24.0 h, N=4
  concentration at 24 h: 0.248 ng/mL
other: sublingual, 5 mg/kg, Mean, SL, dose column 5 mg/kg (title 30 mg/kg), Fourth Formulation (Form 2), 32.0 h, N=4
  concentration at 32 h: 0.0803 ng/mL
[8]
  concentration at 0 h: 0 ng/mL
  concentration at 0.25 h: 0 ng/mL
  concentration at 0.5 h: 0 ng/mL
other: sublingual, 5 mg/kg, Median, SL, dose column 5 mg/kg (title 30 mg/kg), Fourth Formulation (Form 2), 1.0 h, N=4
  concentration at 1 h: 0 ng/mL
